Experimental data as given in ChEMBL document CHEMBL5120967, “Development of an Orally Active Small-Molecule Inhibitor of Receptor Activator of Nuclear Factor-κB Ligand” (J Med Chem, 2022).

Legend:
[1] = Anti-osteoporosis activity C57/BL6 mouse bone marrow macrophage cells assessed as inhibition of RANKL-induced osteoclastogenesis at 1 uM measured after 5 to 6 days in presence of M-CSF and RNKL by TRAP staining microscopic analysis; assay type: functional, BMDM; parameters: scale not given: the % may be the effect or the level left; conditions: time 5-6 day
[2] = tested on: BMDM; assay: Cytotoxicity against C57/BL6 mouse bone marrow macrophage cells assessed as reduction in cell viability at 10 uM incubated for 3 days by CCK8 assay; assay type: toxicity, cell-based; conditions: 72 h, time 3 day
[3] = Anti-osteoporosis activity C57/BL6 mouse bone marrow macrophage cells assessed as inhibition of RANKL-induced osteoclastogenesis at 0.1 uM measured after 5 to 6 days in presence of M-CSF and RNKL by TRAP staining microscopic analysis; assay type: functional, BMDM; parameters: scale not given: the % may be the effect or the level left; conditions: time 5-6 day
[4] = AUC(0 to t) in OVX-induced C57/BL6 mouse model at 3 mg/kg, iv; assay type: ADME, organism-based; parameters: dose 3 mg/kg, route iv; conditions: female, in vivo
[5] = Half life in OVX-induced C57/BL6 mouse model at 3 mg/kg, iv; assay type: ADME, organism-based; conditions: female, in vivo
[6] = Clearance in OVX-induced C57/BL6 mouse model at 3 mg/kg, iv; assay type: ADME, organism-based; conditions: female, in vivo
[7] = Oral bioavailability in OVX-induced C57/BL6 mouse model; assay type: ADME, organism-based; conditions: female, in vivo
[8] = AUC(0 to t) in OVX-induced C57/BL6 mouse model at 5 mg/kg, po; assay type: ADME, organism-based; parameters: dose 5 mg/kg, route po; conditions: female, in vivo
[9] = Cmax in OVX-induced C57/BL6 mouse model at 5 mg/kg, po; assay type: ADME, organism-based; parameters: dose 5 mg/kg, route po; conditions: female, in vivo
[10] = Half life in OVX-induced C57/BL6 mouse model at 5 mg/kg, po; assay type: ADME, organism-based; conditions: female, in vivo

| Compound | Activity [1] | Cell viability [2] | Activity [3] | further results |
| --- | --- | --- | --- | --- |
| O=C(Nc1ccccn1)c1cc2c([nH]c3ccccc32)c(CCc2ccccc2)n1 | 36.1% | > 100% |  |  |
| Cc1cccc(C)c1NC(=O)c1cc2c([nH]c3ccccc32)c(CCc2ccc(C(=O)O)cc2)n1 | 85.9% | > 100% | 37.6% |  |
| Cc1cc2occ(CN(C)CCN(C)Cc3cn(-c4cccc(C(F)(F)F)c4)c4ccccc34)c(=O)c2cc1C | 56.1% | 3.8% | 18.4% |  |
| Cc1cccc(C)c1NC(=O)c1cc2c([nH]c3ccccc32)c(CCC2CCCCC2)n1 | 52.8% | > 100% | 9.1% |  |
| Cl.O=C(NC1CCNCC1)c1cc2c([nH]c3ccccc32)c(CCc2ccccc2)n1 | 0% | 47.9% |  |  |
| Cc1cccc(C)c1NC(=O)c1cc2c([nH]c3ccccc32)c(CCc2ccc(C(F)(F)F)cc2)n1 | 72.5% | > 100% | 19.5% |  |
| Cc1cccc(C)c1NC(=O)c1cc2c([nH]c3ccccc32)c(CCc2ccc(N)cc2)n1 | 70.3% | > 100% | 11.4% |  |
| Cc1cccc(C)c1NC(=O)c1cc2c([nH]c3ccccc32)c(CNc2ccccc2)n1 |  | 67.6% |  |  |
| Cc1cccc(C)c1NC(=O)c1cc2c([nH]c3ccccc32)c(CCc2ccncc2)n1 | 79.1% | > 100% | 29.8% |  |
| Cc1cccc(C)c1NC(=O)c1cc2c([nH]c3ccccc32)c(CCc2cccnc2)n1 |  | 51.2% |  |  |
| Cc1cccc(C)c1NC(=O)c1cc2c([nH]c3ccccc32)c(CCc2ccccc2O)n1 | 36% | 87.1% |  |  |
| Cc1cccc(C)c1NC(=O)c1cc2c([nH]c3ccccc32)c(CCc2ccc(N(C)C)cc2)n1 | 54.7% | > 100% | 36.7% |  |
| O=C(Nc1nccs1)c1cc2c([nH]c3ccccc32)c(CCc2ccccc2)n1 | 27% | > 100% |  |  |
| Cn1cc(NC(=O)c2cc3c([nH]c4ccccc43)c(CCc3ccccc3)n2)cn1 | 0% | > 100% |  |  |
| Cc1cccc(C)c1NC(=O)c1cc2c([nH]c3ccccc32)c(CCc2ccccc2F)n1 | 66.7% | > 100% | 26.7% |  |
| O=C(Nc1ncc[nH]1)c1cc2c([nH]c3ccccc32)c(CCc2ccccc2)n1 | 78.9% | > 100% | 10.7% |  |
| O=C(Nc1cc[nH]n1)c1cc2c([nH]c3ccccc32)c(CCc2ccccc2)n1 | 39.9% | > 100% |  |  |
| Cc1cccc(C)c1NC(=O)C(Cc1c[nH]c2ccccc12)NCCCc1ccccc1 (centres undefined) | 32% | > 100% |  | AUC(0-t) [4]: 984 ng·h/mL; half-life [5]: 72 min; clearance [6]: 51 mL/min/kg; bioavailability [7]: 2.4%; AUC(0-t) [8]: 38.8 ng·h/mL; Cmax [9]: 10 ng/mL; half-life [10]: 54 min |
| Cc1cccc(C)c1NC(=O)c1cc2c([nH]c3ccccc32)c(CCc2ccc(Cl)cc2)n1 | 52.5% | > 100% | 11.3% |  |
| O=C(NC1CCOCC1)c1cc2c([nH]c3ccccc32)c(CCc2ccccc2)n1 | 47.9% | > 100% |  |  |
| Cc1cccc(C)c1NC(=O)c1cc2c([nH]c3ccccc32)c(CCc2nccs2)n1 |  | 71% |  |  |

| Compound | Activity [1] | Cell viability [2] | Activity [3] | further results |
| --- | --- | --- | --- | --- |
| O=C(NCc1ccccc1)c1cc2c([nH]c3ccccc32)c(CCc2ccccc2)n1 | 0% | > 100% |  |  |
| O=C(Nc1ccncc1)c1cc2c([nH]c3ccccc32)c(CCc2ccccc2)n1 | 56.6% | > 100% | 18.4% |  |
| Cc1cccc(C)c1NC(=O)c1cc2c([nH]c3ccccc32)c(CCc2ccc(C#N)cc2)n1 | 79.5% | > 100% | 16.5% |  |
| Cc1cccc(C)c1NC(=O)c1cc2c([nH]c3ccccc32)c(CCc2cc(F)cc(F)c2)n1 | 35.2% | > 100% |  |  |
| COc1ccc(CCc2nc(C(=O)Nc3c(C)cccc3C)cc3c2[nH]c2ccccc23)cc1 | 75.7% | > 100% | 29.3% |  |
| O=C(NC1CCCCC1)c1cc2c([nH]c3ccccc32)c(CCc2ccccc2)n1 | 0% | > 100% |  |  |
| COc1cccc(CCc2nc(C(=O)Nc3c(C)cccc3C)cc3c2[nH]c2ccccc23)c1 | 82.3% | > 100% | 27.1% |  |
| Cc1cccc(C)c1NC(=O)c1cc2c([nH]c3ccccc32)c(CCc2cccc(O)c2)n1 | 0% | > 100% |  |  |
| Cc1cccc(C)c1NC(=O)c1cc2c([nH]c3ccccc32)c(CCc2cccc(F)c2)n1 | 54.7% | > 100% | 21% |  |
| Cc1ccc(CCc2nc(C(=O)Nc3c(C)cccc3C)cc3c2[nH]c2ccccc23)cc1 | 77.6% | > 100% | 16.2% |  |
| Cc1cccc(C)c1NC(=O)c1cc2c([nH]c3ccccc32)c(CCc2ncc[nH]2)n1 | 28.6% | > 100% |  |  |
| COc1ccccc1CCc1nc(C(=O)Nc2c(C)cccc2C)cc2c1[nH]c1ccccc12 | 83% | > 100% | 33.6% |  |
| CNc1ccc(CCc2nc(C(=O)Nc3c(C)cccc3C)cc3c2[nH]c2ccccc23)cc1 | 37.9% | > 100% |  |  |
| CC(=O)Nc1ccc(CCc2nc(C(=O)Nc3c(C)cccc3C)cc3c2[nH]c2ccccc23)cc1 | 55% | > 100% | 19% |  |
| COC(=O)c1ccc(CCc2nc(C(=O)Nc3c(C)cccc3C)cc3c2[nH]c2ccccc23)cc1 | 77.6% | 99.6% | 28.5% |  |
| O=C(c1cc2c([nH]c3ccccc32)c(CCc2ccccc2)n1)N1CCOCC1 | 32.6% | > 100% |  |  |
| O=C(NC1CC1)c1cc2c([nH]c3ccccc32)c(CCc2ccccc2)n1 | 0% | > 100% |  |  |
| Cc1cccc(C)c1NC(=O)c1cc2c([nH]c3ccccc32)c(CCc2ccc(F)cc2)n1 | 65.2% | > 100% | 28.2% |  |
| Cc1cccc(C)c1NC(=O)c1cc2c([nH]c3ccccc32)c(CCc2ccc(P(C)(C)=O)cc2)n1 | 81.6% | > 100% | 32.6% |  |
| Cc1cccc(C)c1NC(=O)c1cc2c([nH]c3ccccc32)c(CCc2ccc(O)cc2)n1 | 23.8% | 76.9% |  |  |
| O=C(Nc1cccnc1)c1cc2c([nH]c3ccccc32)c(CCc2ccccc2)n1 | 18.3% | > 100% |  |  |
